Values quoted from earlier work, collected in EP4060021A1, “MIMETIC MICROBIOLOGICAL CULTURE MEDIUM AND USES THEREOF” (BIOFILM PHARMA, priority 2021, dated 2022).
Like-named read-outs stand apart in the source and are kept apart here.

Key:
souche de S. aureus = settings: modèle de sepsis, souris infectée par S. aureus, traitées; cited from earlier work
[1] = tested on: souches de S. aureus issues de plaies; settings: cited from earlier work
S. aureus = settings: coculture S. aureus avec P. aeruginosa dans du milieu Lubbock; cited from earlier work
P. aeruginosa = settings: coculture S. aureus avec P. aeruginosa dans du milieu Lubbock; cited from earlier work

CC[C@H]1OC(=O)[C@H](C)[C@@H](O[C@H]2C[C@@](C)(OC)[C@@H](O)[C@H](C)O2)[C@H](C)[C@@H](O[C@@H]2O[C@H](C)C[C@H](N(C)C)[C@H]2O)[C@](C)(O)C[C@@H](C)C(=O)[C@H](C)[C@@H](O)[C@]1(C)O [érythromycine]
survie des souris (souche de S. aureus): ont survécu

CC(=O)OCC1=C(C(=O)O)N2C(=O)[C@@H](NC(=O)Cc3cccs3)[C@H]2SC1 [cefalotine]
survie des souris (souche de S. aureus): ont survécu

CCCCCCCCCC(=O)N[C@@H](Cc1c[nH]c2ccccc12)C(=O)N[C@@H](CC(N)=O)C(=O)N[C@@H](CC(=O)O)C(=O)N[C@@H]1C(=O)NCC(=O)N[C@@H](CCCN)C(=O)N[C@@H](CC(=O)O)C(=O)N[C@H](C)C(=O)N[C@@H](CC(=O)O)C(=O)NCC(=O)N[C@H](CO)C(=O)N[C@@H]([C@H](C)CC(=O)O)C(=O)N[C@@H](CC(=O)c2ccccc2N)C(=O)O[C@@H]1C (stereo in doubt) [daptomycine]
sensibilité des souches de S. aureus ([1]; milieu DMEM): plus sensibles | sensibilité des souches de S. aureus ([1]; milieux MLM ou Lacks): plus résistantes

gentamicine
résistance en coculture (S. aureus): résistance partielle | résistance en coculture (P. aeruginosa): ce qui n'est pas le cas

CO/N=C(\C(=O)N[C@@H]1C(=O)N2C(C(=O)O)=C(CSc3nc(=O)c(=O)[nH]n3C)CS[C@H]12)c1csc(N)n1 [ceftriaxone]
survie des souris (souche de S. aureus): ont survécu
